Measured values as given in PMC11313180 (International Journal of Molecular Sciences, 2024).
Where two headings read alike, the source gives them in different places.

Tests used:
MDA-MB-231 = test: MTT cell viability assay, MDA-MB-231; type: cell-based, human
Experimental: MTT assays were performed as previously described. Cell numbers plated differed depending on each incubation time: MDA-MB-231 5000 c/w, MCF-7 5000 c/w (72 h) and 3000 c/w (120 h), T-47D 10,000 c/w (72 h) and 5000 c/w /120 h). After incubation time, medium was replaced by MTT (solution of 5 mg/mL 3-(4,5-dimethylthiazol-2-yl)-2,5-diphenyl-tetrazoliumbromidin in phosphate buffered saline, Serva, Heidelberg, Germany). After 10 min (MCF-7), 20 min (MDA-MB-231), and 30 min (T47D) and dissolving in DMSO (VWR, Langenfeld, Germany), absorbance was measured at 544 nm and 690 nm in a FLUOstar microplate reader (BMG LabTech, Offenburg, Germany).

MCF-7 [1] = test: Long-term (10 days) live/dead proliferation assay, calcein AM and Hoechst 33342, MCF-7; type: cell-based, human; conditions: 1 µM exemestane, 1 mM (R)-α-lipoic acid
Experimental: (§1) Cells were seeded on day one in 96-well plates. […] Then, cells were stained with calcein AM (Millipore Corporation, Billerica, MA, USA) and Hoechst 33342 (Tocris Bioscience, Bristol, UK) for 30 min and fluorescence images monitored by Leica DMi8 Thunder Imager (Leica Microsystems CMS GmbH, Wetzlar, Germany). Five images per well were monitored randomly. Calcein AM- and Hoechst 33342-stained area of the images (i.e., live proliferating cells) were evaluated.

T47D [2] = test: Immunoblotting, T47D; type: cell-based, human; conditions: 48 h
Experimental: (§2) A quantity of 20 or 40 µg of total protein as well as, from PageRuler Prestained Protein Ladder, 10–180 kDA (Thermo Scientific, Wesel, Germany), were resolved by SDS-Page (12% polyacrylamide gel) and transferred to polyvinylidene fluoride membrane (Millipore Corporation, Billerica, MA, USA). Blots were incubated with primary antibodies against acetylated a -tubulin (Cat. No. sc-23950), a -tubulin (Cat. No. sc-8035) (Santa Cruz Biotechnology, Heidelberg, Germany), acetyl histone h3 (Cat. No. 39140) and histone H3 (Cat. No. NB100-1669), ß-actine (Cat. No. sc-47778), p21 (AF1047), c-myk (Cat. No. MAB3696), APAF1 (Cat. No. MAB868), BIM (Cat. No. NBP1-76936), FOXO1 (Cat. No. C29H4), BCL-2 (Cat. No. AF810), and survivin (Cat. No. AF886). After another one-hour incubation with the appropriate HRP-conjugated secondary antibody, proteins were visualized by Intas Imager (Intas, Göttingen, Germany) using luminol reagent (Santa Cruz Biotechnology, Heidelberg, Germany).

MCF-7 [3] = test: Mitochondrial potential assay (TMRE), MCF-7; type: cell-based, human; conditions: 1 mM; 2 h, 6 h, 24 h, 48 h
Experimental: The analysis of mitochondrial potential was carried out as previously described with minor modifications concerning fluorescence measurement. […] After an incubation time of 2 h, 6 h, 24 h, and 48 h, medium was removed, and cells were washed with PBS and then stained for 30 min at 37 °C with 50 µL staining reagent containing 500 nM tetramethyl rhodamine ethylester as perchlorate (TMRE, BIOTREND chemicals GmbH, Cologne) and Hoechst 33342 (5 µg/mL). A quantity of 20 µM CCCP (carbonyl cyanide-m-chlorophenylhydrazone, Sigma-Aldrich, München, Germany) served as control for mitochondrial potential breakdown. Fluorescence was measured by Leica DMi8 Thunder Imager (Leica Microsystems CMS GmbH, Wetzlar, Germany).

MCF-7 [4] = test: Immunoblotting, MCF-7; type: cell-based, human; conditions: 48 h
Experimental: as §2

HDAC8 = conditions: obtained by fitting Lechner et al. source data to a sigmoidal concentration–effect model; ref [21]; read-out: IC50 HDAC 8, Lechner et al.; cited from earlier work
HDAC6 = conditions: obtained by fitting Lechner et al. source data to a sigmoidal concentration–effect model; ref [21]; read-out: IC50 HDAC 6, Lechner et al.; cited from earlier work
T47D [5] = test: Long-term (10 days) live/dead proliferation assay, calcein AM and Hoechst 33342, T47D; type: cell-based, human; conditions: 1 µM exemestane, 1 mM (R)-α-lipoic acid
Experimental: as §1

[6] = system: caspase 3/7 in MCF-7 cells; test: Caspase 3/7 activation assay, MCF-7; type: cell-based, human; conditions: 24 h; 1 µM exemestane, 0.5 mM or 1 mM (R)-α-lipoic acid
Experimental: (§3) To analyze the compound-induced activation of capases 3 and 7, the CellEvent caspase 3/7 green detection reagent (Thermo Scientific, Wesel, Germany) was used according to the manufacturer’s instructions. […] After 24 h incubation, medium was removed, and cells were stained with 50 µL of CellEvent caspase 3/7 green detection reagent (2 µM in PBS supplemented with 5% heat-inactivated FBS). Cells were incubated for 30 min at 37 °C in a humidified incubator before imaging by using the Thermo Fisher ArrayScan XTI high content screening (HCS) system with a 10× magnification (Thermo Scientific). Hoechst 33342 was added for nuclei staining.

[7] = system: caspase 3/7 in T47D cells; test: Caspase 3/7 activation assay, T47D; type: cell-based, human; conditions: 24 h; 1 µM exemestane, 0.5 mM or 1 mM (R)-α-lipoic acid
Experimental: as §3

HDAC = conditions: up to 500 µM (max. concentration tested); ref [21]; cited from earlier work
[8] = 120 h, IC50 ± SEM, read-out: IC50 MDA-MB-231, 120 h MTT assay
[9] = 1 mM (R)-α-lipoic acid, 1 µM exemestane

O=C(O)CCCC[C@@H]1CCSS1 [(R)-α-lipoic acid]
IC50 (MDA-MB-231; 72 h MTT, slightly below, read-out: IC50 MDA-MB-231): ~1000 µM
IC50 (MDA-MB-231; [8]): 225 ± 7.33 µM
increase in potency by prolongation of incubation time, MDA-MB-231 (MDA-MB-231; 120 h versus 72 h MTT): 3.9 fold
IC50 (MDA-MB-231; read-out: IC50 MDA-MB-231, 72 h MTT assay, 72 h, IC50 ± SEM): 873 ± 36 µM
proliferation and doubling time over 10 days, MCF-7 (MCF-7 [1]): strong reduction in proliferation and thus increase in doubling time
expression of APAF-1 and BIM, T47D (T47D [2]): upregulated
expression of FOXO1, T47D (T47D [2]): strongly upregulated
acetylation of histone H3 and alpha-tubulin (western blot), T47D (T47D [2]; [9]): increased acetylation of histone and of alpha-tubulin
expression of p21, T47D (T47D [2]; [9]): moderately upregulated
expression of survivin and c-myk, T47D (T47D [2]; [9]): strongly downregulated
mitochondrial potential and structure (TMRE) (MCF-7 [3]): mitochondrial fusion up to 24 h followed by mitochondrial fission and inhibition of proliferation
expression of APAF-1 and BIM, MCF-7 (MCF-7 [4]): upregulated
expression of FOXO1, MCF-7 (MCF-7 [4]): strongly upregulated
acetylation of histone H3 and alpha-tubulin (western blot), MCF-7 (MCF-7 [4]; [9]): increased acetylation of histone and of alpha-tubulin
expression of p21, MCF-7 (MCF-7 [4]; [9]): moderately upregulated
expression of survivin and c-myk, MCF-7 (MCF-7 [4]; [9]): strongly downregulated
IC50 (HDAC8): 127 µM
IC50 (HDAC6): 210 µM
proliferation and doubling time over 10 days, T47D (T47D [5]): reduced proliferation and increased doubling time strongly

O=C(O)CCCC[C@H]1CCSS1 [(S)-α-lipoic acid]
IC50 (MDA-MB-231; [8]): 243 ± 25.1 µM
IC50 (HDAC8): > 500 µM
caspase 3/7 activation, MCF-7 [6]: slightly lower than (R)-α-lipoic acid
IC50 (HDAC6): > 500 µM
caspase 3/7 activation, T47D [7]: slightly lower than (R)-α-lipoic acid
HDAC inhibitory activity (HDAC): no HDAC inhibitory activity
